Activity calls are given as the source filed them. The calls are words filed in the database; no cut-off is given here.
How the values were obtained:
[1] = biological target: Indoleamine 2,3-dioxygenase 1 (Homo sapiens, UniProt P14902); test: Inhibition of recombinant human IDO1 using L-Trp as substrate incubated for 1 hr
[2] = biological target: T1, Thioredoxin reductase 1, cytoplasmic (Rattus norvegicus, UniProt O89049); test: Inhibition of recombinant rat TrxR1 incubated for 1 hr in presence of NADPH by microplate reader analysis
T1 sequence (O89049 whole entry): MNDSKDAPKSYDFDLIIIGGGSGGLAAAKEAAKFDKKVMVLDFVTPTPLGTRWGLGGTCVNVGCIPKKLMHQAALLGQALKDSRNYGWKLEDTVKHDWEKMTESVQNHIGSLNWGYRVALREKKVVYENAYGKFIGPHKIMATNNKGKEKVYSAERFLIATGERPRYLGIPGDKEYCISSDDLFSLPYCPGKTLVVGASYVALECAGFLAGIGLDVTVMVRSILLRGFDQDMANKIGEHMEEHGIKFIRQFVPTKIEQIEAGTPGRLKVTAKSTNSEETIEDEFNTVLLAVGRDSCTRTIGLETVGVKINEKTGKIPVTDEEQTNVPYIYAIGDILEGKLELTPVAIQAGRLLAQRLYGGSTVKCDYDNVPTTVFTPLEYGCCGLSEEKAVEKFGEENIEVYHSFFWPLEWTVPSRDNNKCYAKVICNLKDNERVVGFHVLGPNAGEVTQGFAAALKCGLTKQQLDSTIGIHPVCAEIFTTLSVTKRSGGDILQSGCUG

HCT-116 = test: Antiproliferative activity against human HCT-116 cells assessed as cell growth inhibition incubated for 48 hrs by CCK-8 assay; format: functional, cell-based; conditions: HCT-116, 48 h
[3] = Cytotoxicity against mouse CT26 cells incubated for 48 hrs by CCK-8 assay; format: toxicity, cell-based
[4] = Cytotoxicity against human HCT-116 cells incubated for 48 hrs by CCK-8 assay; format: toxicity, cell-based
[5] = Toxicity in athymic nude BALB/c mouse assessed as weight gain at 60 mg/kg, ig administered daily for 28 days and measured every 4 days; format: organism-based; conditions: in vivo, po, 672 h, time 28 day
[6] = Cytotoxicity against human HeLa cells incubated for 48 hrs by CCK-8 assay; format: toxicity, cell-based
[7] = biological target: T2, Indoleamine 2,3-dioxygenase 2 (Homo sapiens, UniProt Q6ZQW0); test: Inhibition of IDO2 (unknown origin) using D-Trp as substrate incubated for 1 hr
T2 sequence (Q6ZQW0 whole entry): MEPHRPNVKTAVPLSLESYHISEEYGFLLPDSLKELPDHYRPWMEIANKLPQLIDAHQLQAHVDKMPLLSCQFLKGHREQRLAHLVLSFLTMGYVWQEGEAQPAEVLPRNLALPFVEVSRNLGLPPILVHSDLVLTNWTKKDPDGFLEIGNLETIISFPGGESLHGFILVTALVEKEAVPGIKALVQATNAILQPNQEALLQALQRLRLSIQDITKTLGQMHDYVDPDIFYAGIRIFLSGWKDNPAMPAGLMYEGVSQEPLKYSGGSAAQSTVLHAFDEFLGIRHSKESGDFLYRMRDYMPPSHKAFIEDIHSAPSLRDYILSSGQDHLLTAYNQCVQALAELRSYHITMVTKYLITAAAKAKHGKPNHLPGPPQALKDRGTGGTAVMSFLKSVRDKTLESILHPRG

[8] = biological target: T3, Thioredoxin reductase 1, cytoplasmic (Mus musculus) (UniProt Q9JMH6); test: Inhibition of TrxR1 in mouse CT26 cells incubated for 24 hrs; format: cell-based
T3 sequence (whole entry): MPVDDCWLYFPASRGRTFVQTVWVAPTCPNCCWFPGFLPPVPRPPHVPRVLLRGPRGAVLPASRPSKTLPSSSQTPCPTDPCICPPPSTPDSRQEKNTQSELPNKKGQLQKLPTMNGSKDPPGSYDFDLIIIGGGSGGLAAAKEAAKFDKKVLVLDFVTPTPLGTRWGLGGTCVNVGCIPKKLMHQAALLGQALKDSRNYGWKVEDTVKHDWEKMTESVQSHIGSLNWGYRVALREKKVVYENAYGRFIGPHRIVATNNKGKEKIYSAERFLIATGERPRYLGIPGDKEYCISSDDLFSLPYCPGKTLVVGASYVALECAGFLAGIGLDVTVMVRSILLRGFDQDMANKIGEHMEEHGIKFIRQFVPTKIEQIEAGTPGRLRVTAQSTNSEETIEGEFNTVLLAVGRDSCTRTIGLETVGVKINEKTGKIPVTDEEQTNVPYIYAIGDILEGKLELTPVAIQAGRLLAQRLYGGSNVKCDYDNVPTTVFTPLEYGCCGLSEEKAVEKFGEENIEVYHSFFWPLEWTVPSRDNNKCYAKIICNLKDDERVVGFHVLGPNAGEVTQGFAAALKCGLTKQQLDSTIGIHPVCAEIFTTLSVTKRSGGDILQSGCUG

CT26 [9] = test: Antitumor activity against mouse CT26 cells implanted in […] BALB/c mouse assessed as increase in CD4 Th lymphocytes at 60 mg/kg, ig administered daily for 28 days and measured every 4 days; format: functional, organism-based; conditions: time 28.0 day
[10] = biological target: T4, Thioredoxin reductase 1, cytoplasmic (Homo sapiens) (UniProt Q16881); test: Inhibition of TrxR1 in human HeLa cells incubated for 24 hrs; format: cell-based
T4 sequence (whole entry): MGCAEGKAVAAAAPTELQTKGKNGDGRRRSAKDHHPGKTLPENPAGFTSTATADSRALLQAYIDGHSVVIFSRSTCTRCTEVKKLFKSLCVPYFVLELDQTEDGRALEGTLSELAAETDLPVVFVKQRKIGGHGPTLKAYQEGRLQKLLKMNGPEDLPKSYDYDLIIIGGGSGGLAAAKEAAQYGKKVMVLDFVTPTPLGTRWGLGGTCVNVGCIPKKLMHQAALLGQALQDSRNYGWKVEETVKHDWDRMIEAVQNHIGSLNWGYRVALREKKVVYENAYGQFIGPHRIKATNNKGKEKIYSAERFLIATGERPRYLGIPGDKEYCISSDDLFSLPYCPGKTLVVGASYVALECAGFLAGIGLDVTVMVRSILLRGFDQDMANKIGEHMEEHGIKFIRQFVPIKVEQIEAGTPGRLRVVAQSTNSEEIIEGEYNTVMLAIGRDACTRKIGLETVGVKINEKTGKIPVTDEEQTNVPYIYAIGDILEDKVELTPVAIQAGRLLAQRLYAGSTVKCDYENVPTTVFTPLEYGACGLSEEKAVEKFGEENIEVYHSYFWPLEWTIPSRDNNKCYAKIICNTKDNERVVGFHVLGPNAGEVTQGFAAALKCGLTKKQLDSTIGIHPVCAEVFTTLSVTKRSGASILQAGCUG

[11] = biological target: T4, Thioredoxin reductase 1, cytoplasmic (Homo sapiens); test: Inhibition of TrxR1 in human HCT-116 cells incubated for 24 hrs; format: cell-based
CT26 [12] = test: Antitumor activity against mouse CT26 cells implanted in […] BALB/c mouse assessed as reduction in nTreg lymphocytes at 60 mg/kg, ig administered daily for 28 days and measured every 4 days by immunofluorescence analysis; format: functional, organism-based; conditions: time 28.0 day
CT26 [13] = test: Antitumor activity against mouse CT26 cells implanted in athymic nude BALB/c mouse assessed as reduction in proliferative nTreg lymphocytes at 60 mg/kg, ig administered daily for 28 days and measured every 4 days by immunofluorescence analysis; format: functional, organism-based; conditions: time 28.0 day
CT26 [14] = test: Antitumor activity against mouse CT26 cells implanted in […] BALB/c mouse assessed as increase in CD8 T lymphocytes at 60 mg/kg, ig administered daily for 28 days and measured every 4 days; format: functional, organism-based; conditions: time 28.0 day
CT26 [15] = test: Antitumor activity against mouse CT26 cells implanted in athymic nude BALB/c mouse assessed as reduction in CD4+CD25+Foxp3+ lymphocytes at 60 mg/kg, ig administered daily for 28 days and measured every 4 days by immunofluorescence analysis; format: functional, organism-based; conditions: time 28.0 day
[16] = biological target: Indoleamine 2,3-dioxygenase 1 (Mus musculus) (UniProt P28776); test: In vivo inhibition of IDO1 in C57BL/6 mouse assessed as reduction in plasma Kyn/Trp ratio at 60 mg/kg, po administered once daily by LC-MS/MS analysis; format: functional, organism-based
Chain of Indoleamine 2,3-dioxygenase 1 (Mus musculus) (P28776 whole entry, looked up): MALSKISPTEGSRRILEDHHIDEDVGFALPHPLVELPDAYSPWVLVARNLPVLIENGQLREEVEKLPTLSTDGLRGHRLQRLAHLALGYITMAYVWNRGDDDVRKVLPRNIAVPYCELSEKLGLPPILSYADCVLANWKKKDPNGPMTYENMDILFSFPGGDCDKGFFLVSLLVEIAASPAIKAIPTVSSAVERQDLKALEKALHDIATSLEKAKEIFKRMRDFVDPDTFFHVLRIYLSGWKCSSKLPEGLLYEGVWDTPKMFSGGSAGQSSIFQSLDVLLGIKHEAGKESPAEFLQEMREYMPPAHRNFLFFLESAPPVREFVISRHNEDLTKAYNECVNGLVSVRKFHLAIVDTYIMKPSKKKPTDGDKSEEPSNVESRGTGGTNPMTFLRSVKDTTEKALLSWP

[17] = biological target: Indoleamine 2,3-dioxygenase 1 (Mus musculus) (UniProt P28776); test: In vivo inhibition of IDO1 in C57BL/6 mouse assessed as increase in plasma Trp level at 60 mg/kg, po administered once daily by LC-MS/MS analysis; format: functional, organism-based
[18] = biological target: Indoleamine 2,3-dioxygenase 1 (Mus musculus) (UniProt P28776); test: In vivo inhibition of IDO1 in C57BL/6 mouse assessed as reduction in plasma Kyn level at 60 mg/kg, po administered once daily by LC-MS/MS analysis; format: functional, organism-based

Chain of Indoleamine 2,3-dioxygenase 1 (P14902 whole entry): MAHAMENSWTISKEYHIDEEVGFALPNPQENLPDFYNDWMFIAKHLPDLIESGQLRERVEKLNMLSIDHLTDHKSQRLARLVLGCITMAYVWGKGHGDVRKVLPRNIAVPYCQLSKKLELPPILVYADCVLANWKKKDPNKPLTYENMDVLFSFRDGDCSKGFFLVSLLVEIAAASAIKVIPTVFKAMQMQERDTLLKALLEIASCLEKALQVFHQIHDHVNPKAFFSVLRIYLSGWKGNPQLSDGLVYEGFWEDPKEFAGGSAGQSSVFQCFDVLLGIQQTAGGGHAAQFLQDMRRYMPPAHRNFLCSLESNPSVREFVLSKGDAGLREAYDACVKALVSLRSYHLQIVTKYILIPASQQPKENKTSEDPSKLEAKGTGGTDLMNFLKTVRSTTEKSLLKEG

O=C(Cc1ccc(O)cc1)Nc1nnc(CCCNc2nonc2/C(=N\O)NCCc2ccc(Br)cc2)s1
IC50 [1]: 10.1 µM | IC50 [2]: 18.3 µM | IC50 (HCT-116): 4.62 µM

NS(=O)(=O)NCCNc1nonc1C(=NO)Nc1ccc(F)c(Br)c1 [EPACADOSTAT]
IC50 at 48 h [3]: 1.49 µM | IC50 at 48 h [4]: 0.26 µM | Activity [5]: Toxic | IC50 at 48 h [6]: 4.63 µM | IC50 [7]: 0.63 µM

NS(=O)(=O)NCCNc1nonc1/C(=N/O)Nc1ccc(F)c(Br)c1
inhibition [8]: inactive | Activity (CT26 [9]): Active | inhibition [10]: inactive | inhibition [11]: inactive | Activity (CT26 [12]): Active | Activity (CT26 [13]): Active | Activity (CT26 [14]): Active | Activity (CT26 [15]): Active | Activity [16]: Active | Activity [17]: Active | Activity [18]: Active

O=C(Cc1ccccc1)Nc1nnc(CCCNc2nonc2/C(=N\O)NCCc2ccc(Cl)cc2)s1
IC50 [1]: 7.88 µM | IC50 [2]: 6.46 µM | IC50 (HCT-116): 4.65 µM

O=C(Cc1ccccc1)Nc1nnc(CCCNc2nonc2/C(=N\O)NCCc2ccc(F)cc2)s1
IC50 [1]: 13.2 µM | IC50 [2]: 25.2 µM | IC50 (HCT-116): 5.59 µM

O=C(Cc1cccc(OC(F)(F)F)c1)Nc1nnc(CCCNc2nonc2/C(=N\O)Nc2ccc(F)c(Br)c2)s1
IC50 [1]: 0.12 µM | IC50 [2]: 3.69 µM | IC50 (HCT-116): 5.25 µM

O=C(Cc1cccc(OC(F)(F)F)c1)Nc1nnc(CCCNc2nonc2/C(=N\O)NCCc2ccc(Br)cc2)s1
IC50 [1]: 5.58 µM | IC50 [2]: 10.5 µM | IC50 (HCT-116): 3.1 µM

O=C(Cc1ccccc1)Nc1nnc(CCCNc2nonc2/C(=N\O)Nc2ccc(F)c(Br)c2)s1
IC50 [1]: 0.06 µM | IC50 [2]: 3.74 µM | IC50 (HCT-116): 5.98 µM

O=C(Cc1ccc(O)cc1)Nc1nnc(CCCNc2nonc2/C(=N\O)NCCc2ccc(Cl)cc2)s1
IC50 [1]: 10.3 µM | IC50 [2]: 1.96 µM | IC50 (HCT-116): 4.42 µM

O=C(Cc1cccc(OC(F)(F)F)c1)Nc1nnc(CCCNc2nonc2/C(=N\O)NCCc2ccc(Cl)cc2)s1
IC50 [1]: 17.5 µM | IC50 [2]: 7.63 µM | IC50 (HCT-116): 3.79 µM

O=C(Cc1ccc(O)cc1)Nc1nnc(CCCNc2nonc2/C(=N\O)NCCc2ccc(F)cc2)s1
IC50 [1]: 4.37 µM | IC50 [2]: 13.5 µM | IC50 (HCT-116): 5.31 µM

From ChEMBL document CHEMBL5385848, “Discovery of novel hydroxyamidine based indoleamine 2,3-dioxygenase 1 (IDO1) and thioredoxin reductase 1 (TrxR1) dual inhibitors” (Eur J Med Chem, 2023)
